In patent US20230117920A1, “Library Construction Method, Cyclic Peptide, FXIIa Binder and IFNGR1 Binder” (The University of Tokyo, priority 2019, published 2023):
Starred links: 1 amine or outer side, 2 acyl side, 3 side chain; linkers in the order of their positions; H or OH if unused. Positions of bridges follow the written chain, without caps; N, C: chain ends. Non-standard residues stand in square brackets, D forms with d. Residues, ends and D or L forms follow the SMILES beside them. No end group written: not given here. ACHC(1S,2S) = O=C([C@H]1CCCC[C@@H]1N[*:1])[*:2]; X1 = O=C([C@@H]1CCC[C@H]1N[*:1])[*:2]; X2 = O=C([C@H]1CCC[C@@H]1N[*:1])[*:2]

T1: human factor XIIa (activated blood coagulation factor XII) (human, UniProt P00748 20-615, limits assumed, biotinylated (site not stated))
T1 construct: The construct used for SPR, for the Ki assay and for the cocrystal is not described; The same entry is used for all three; also called FXIIa; FXIIA
T1 sequence (looked up): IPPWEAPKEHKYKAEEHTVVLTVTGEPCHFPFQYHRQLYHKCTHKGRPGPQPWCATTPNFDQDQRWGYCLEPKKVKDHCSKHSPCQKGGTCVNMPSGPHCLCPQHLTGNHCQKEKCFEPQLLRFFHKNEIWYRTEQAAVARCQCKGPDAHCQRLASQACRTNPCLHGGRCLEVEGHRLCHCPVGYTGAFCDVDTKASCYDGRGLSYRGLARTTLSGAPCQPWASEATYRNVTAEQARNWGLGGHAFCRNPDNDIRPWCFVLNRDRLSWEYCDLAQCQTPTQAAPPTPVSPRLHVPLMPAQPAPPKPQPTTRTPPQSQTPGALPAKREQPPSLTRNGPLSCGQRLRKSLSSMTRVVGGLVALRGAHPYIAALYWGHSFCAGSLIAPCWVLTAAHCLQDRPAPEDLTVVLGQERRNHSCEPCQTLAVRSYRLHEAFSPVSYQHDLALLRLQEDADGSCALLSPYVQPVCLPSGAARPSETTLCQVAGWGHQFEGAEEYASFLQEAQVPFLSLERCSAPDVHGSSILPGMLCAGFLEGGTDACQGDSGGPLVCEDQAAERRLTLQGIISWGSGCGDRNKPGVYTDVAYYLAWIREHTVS


Legend:
[1] = biological target: human factor XIIa (FXIIa) (Homo sapiens, UniProt P00748); assay: biochemical; conditions: for kon: read-out: ka
FXIIa = FXIIa (Homo sapiens, UniProt P00748); assay: biochemical
[2] = biological target: interferon γ receptor 1 (IFNGR1) (Homo sapiens, UniProt P15260); assay: biochemical; conditions: for kon: read-out: ka
[3] = biological target: T1, human factor XIIa (activated blood …); assay: SPR, Biacore T200, 25 C, single cycle kinetics, 1:1 model
[4] = biological target: T1, human factor XIIa (activated blood …); assay: inhibition of FXIIa cleavage of the chromogenic substrate S-2302 (H-D-Pro-Phe-Arg-pNA), absorbance at 405 nm
[5] = biological target: human factor XIIa (activated blood coagulation factor XII) (human) (UniProt P00748); assay: SPR, Biacore T200, 25 C, single cycle kinetics, 1:1 model
[6] = biological target: T1, human factor XIIa (activated blood …); assay: SPR, Biacore T200, 25 C, single cycle kinetics, 1:1 model; peptide F2A (drawing CHEM-US-00044, read number 0), control variant of F2

| Molecule | kon [1] | Kd [2] | kon [2] | also measured |
| --- | --- | --- | --- | --- |
| CC(C)C[C@@H]1NC(=O)[C@H](CCCNC(=N)N)NC(=O)[C@H](C)NC(=O)[C@H](CCCNC(=N)N)NC(=O)[C@H]([C@@H](C)O)NC(=O)[C@H](CO)NC(=O)[C@H](CCCNC(=N)N)NC(=O)[C@H](CC(=O)O)NC(=O)[C@H](CC(N)=O)NC(=O)[C@@H](Cc2ccc(O)cc2)NC(=O)CSC[C@H](C(N)=O)NC(=O)[C@H](C)NC(=O)[C@H](C(C)C)NC1=O [F1A] ({CH2CO}-[dY]NDRSTRARLVA[dC]-NH2; thioether N-13) | 580000 M⁻¹ s⁻¹ | – | – | – |
| CC(C)C[C@@H]1NC(=O)[C@H](CCCNC(=N)N)NC(=O)[C@@H]2CCC[C@H]2NC(=O)[C@H](CCCNC(=N)N)NC(=O)[C@H]([C@@H](C)O)NC(=O)[C@H](CO)NC(=O)[C@H](CCCNC(=N)N)NC(=O)[C@H](CC(=O)O)NC(=O)[C@H](CC(N)=O)NC(=O)[C@@H](Cc2ccc(O)cc2)NC(=O)CSC[C@H](C(=O)NCC(N)=O)NC(=O)[C@H](C)NC(=O)[C@H](C(C)C)NC1=O [F1] ({CH2CO}-[dY]NDRSTR[X1]RLVA[dC]G-NH2; thioether N-13) | 2.74e+06 M⁻¹ s⁻¹ | – | – | Kd [1]: 8.21 nM; Ki (FXIIa): 22.1 nM |
| CC(C)C[C@@H]1NC(=O)[C@H](Cc2ccc(O)cc2)NC(=O)[C@H](CO)NC(=O)[C@H](C)NC(=O)[C@H](CC(N)=O)NC(=O)[C@H](Cc2ccccc2)NC(=O)[C@H](CC(C)C)NC(=O)[C@H](CCCNC(=N)N)NC(=O)[C@@H]2CCCN2C(=O)[C@@H](Cc2ccc(O)cc2)NC(=O)CSC[C@H](C(N)=O)NC(=O)[C@H](CCCNC(=N)N)NC(=O)[C@H](CCCNC(=N)N)NC1=O [F2A] ({CH2CO}-[dY]PRLFNASYLRR[dC]-NH2; thioether N-13) | 4.75e+06 M⁻¹ s⁻¹ | – | – | – |
| CC(C)C[C@@H]1NC(=O)[C@H](Cc2ccc(O)cc2)NC(=O)[C@H](CO)NC(=O)[C@@H]2CCC[C@H]2NC(=O)[C@H](CC(N)=O)NC(=O)[C@H](Cc2ccccc2)NC(=O)[C@H](CC(C)C)NC(=O)[C@H](CCCNC(=N)N)NC(=O)[C@@H]2CCCN2C(=O)[C@@H](Cc2ccc(O)cc2)NC(=O)CSC[C@H](C(=O)NCC(N)=O)NC(=O)[C@H](CCCNC(=N)N)NC(=O)[C@H](CCCNC(=N)N)NC1=O [F2] ({CH2CO}-[dY]PRLFN[X1]SYLRR[dC]G-NH2; thioether N-13) | 3.07e+07 M⁻¹ s⁻¹ | – | – | Kd [1]: 0.58 nM; Ki (FXIIa): 2.14 nM |
| CC(C)C[C@@H]1NC(=O)[C@H]2CCCC[C@@H]2NC(=O)[C@H](CCCNC(=N)N)NC(=O)[C@H](CCCNC(=N)N)NC(=O)[C@H](CC(=O)O)NC(=O)[C@H](Cc2ccc(O)cc2)NC(=O)[C@H](C)NC(=O)[C@H](Cc2ccccc2)NC(=O)[C@@H](Cc2ccc(O)cc2)NC(=O)CSC[C@H](C(=O)NCC(N)=O)NC(=O)[C@H](Cc2ccc(O)cc2)NC(=O)[C@H](CC(N)=O)NC(=O)[C@H](CCCNC(=N)N)NC(=O)[C@H]2CCCC[C@@H]2NC(=O)[C@H](CC(N)=O)NC(=O)[C@H](CC(N)=O)NC(=O)[C@H](CO)NC1=O [F3] ({CH2CO}-[dY]FAYDRR[ACHC(1S,2S)]LSNN[ACHC(1S,2S)]RNY[dC]G-NH2; thioether N-17) | 1.59e+06 M⁻¹ s⁻¹ | – | – | – |
| CC(C)C[C@@H]1NC(=O)[C@H](CCCNC(=N)N)NC(=O)[C@H](CC(N)=O)NC(=O)[C@H]2CCCC[C@@H]2NC(=O)[C@H]([C@@H](C)O)NC(=O)[C@H](Cc2ccc(O)cc2)NC(=O)[C@H](CCCNC(=N)N)NC(=O)[C@@H](Cc2ccc(O)cc2)NC(=O)CSC[C@H](C(=O)NCC(N)=O)NC(=O)[C@H](C)NC(=O)[C@H](CC(N)=O)NC(=O)[C@H]2CCCC[C@@H]2NC(=O)[C@H](Cc2ccccc2)NC1=O [F4] ({CH2CO}-[dY]RYT[ACHC(1S,2S)]NRLF[ACHC(1S,2S)]NA[dC]G-NH2; thioether N-13) | 550000 M⁻¹ s⁻¹ | – | – | Kd [1]: 15.5 nM; Ki (FXIIa): 4.32 nM |
| CC(C)[C@@H]1NC(=O)CNC(=O)[C@H](Cc2ccccc2)NC(=O)[C@@H](Cc2ccc(O)cc2)NC(=O)CSC[C@H](C(=O)NCC(N)=O)NC(=O)[C@H]([C@@H](C)O)NC(=O)[C@H](CCCNC(=N)N)NC(=O)[C@H](CC(N)=O)NC(=O)[C@H](Cc2ccc(O)cc2)NC(=O)[C@H](Cc2ccccc2)NC(=O)[C@@H]2CCC[C@H]2NC(=O)[C@H](CCCNC(=N)N)NC1=O [I1-1] ({CH2CO}-[dY]FGVR[X1]FYNRT[dC]G-NH2; thioether N-12) | – | 5 nM | 1.74e+06 M⁻¹ s⁻¹ | – |
| CC(C)C[C@@H]1NC(=O)CNC(=O)[C@H](C(C)C)NC(=O)[C@@H](Cc2ccc(O)cc2)NC(=O)CSC[C@H](C(=O)NCC(N)=O)NC(=O)[C@H]([C@@H](C)O)NC(=O)[C@H](CCCNC(=N)N)NC(=O)[C@H](CC(N)=O)NC(=O)[C@H](CC(C)C)NC(=O)[C@H](CO)NC(=O)[C@@H]2CCC[C@H]2NC(=O)[C@H](CC(N)=O)NC1=O [I1-3] ({CH2CO}-[dY]VGLN[X1]SLNRT[dC]G-NH2; thioether N-12) | – | 150 nM | 1.41e+06 M⁻¹ s⁻¹ | – |
| CC(C)C[C@@H]1NC(=O)[C@H](CO)NC(=O)[C@H](Cc2ccccc2)NC(=O)[C@@H](Cc2ccc(O)cc2)NC(=O)CSC[C@H](C(=O)NCC(N)=O)NC(=O)CNC(=O)[C@H](CCCNC(=N)N)NC(=O)[C@H](CO)NC(=O)[C@H](CCCNC(=N)N)NC(=O)[C@H](CC(N)=O)NC(=O)[C@H](Cc2ccccc2)NC(=O)[C@H](CO)NC(=O)[C@@H]2CCC[C@H]2NC(=O)[C@H](CCCNC(=N)N)NC1=O [I1-4] ({CH2CO}-[dY]FSLR[X1]SFNRSRG[dC]G-NH2; thioether N-14) | – | 5.76 nM | 3.39e+06 M⁻¹ s⁻¹ | – |
| CC(C)C[C@@H]1NC(=O)[C@H](C)NC(=O)[C@H](Cc2ccccc2)NC(=O)[C@@H](Cc2ccc(O)cc2)NC(=O)CSC[C@H](C(=O)NCC(N)=O)NC(=O)[C@H](CCCNC(=N)N)NC(=O)[C@H](CCCNC(=N)N)NC(=O)[C@H](CC(N)=O)NC(=O)[C@H]2CCCC[C@@H]2NC(=O)[C@H](CCCNC(=N)N)NC(=O)[C@@H]2CCC[C@H]2NC(=O)[C@H](CC(N)=O)NC1=O [I1-5] ({CH2CO}-[dY]FALN[X1]R[ACHC(1S,2S)]NRR[dC]G-NH2; thioether N-12) | – | 336 nM | 3.01e+06 M⁻¹ s⁻¹ | – |
| CC(C)[C@@H]1NC(=O)CNC(=O)[C@H](Cc2ccccc2)NC(=O)[C@@H](Cc2ccc(O)cc2)NC(=O)CSC[C@H](C(=O)NCC(N)=O)NC(=O)[C@H]([C@@H](C)O)NC(=O)[C@H](CCCNC(=N)N)NC(=O)[C@H](CC(N)=O)NC(=O)[C@H](Cc2ccc(O)cc2)NC(=O)[C@H](Cc2ccccc2)NC(=O)[C@@H]2CCC[C@H]2NC(=O)[C@H]2CCC[C@@H]2NC1=O [I1-6] ({CH2CO}-[dY]FGV[X2][X1]FYNRT[dC]G-NH2; thioether N-12) | – | 1.87 nM | 920000 M⁻¹ s⁻¹ | – |
| CC(C)C[C@@H]1NC(=O)[C@H](CC(N)=O)NC(=O)[C@H](Cc2ccc(O)cc2)NC(=O)[C@H](CCCNC(=N)N)NC(=O)[C@@H]2CCCN2C(=O)[C@@H](Cc2ccc(O)cc2)NC(=O)CSC[C@H](C(=O)NCC(N)=O)NC(=O)[C@H](CC(N)=O)NC(=O)[C@@H]2CCC[C@H]2NC(=O)[C@H](Cc2ccccc2)NC(=O)[C@H](CCCNC(=N)N)NC(=O)[C@@H]2CCCN2C(=O)[C@H](CO)NC(=O)[C@H](C)NC(=O)CNC(=O)[C@H]2CCC[C@@H]2NC1=O [I2] ({CH2CO}-[dY]PRYNL[X2]GASPRF[X1]N[dC]G-NH2; thioether N-16) | – | 12.3 nM | 1.98e+06 M⁻¹ s⁻¹ | – |
| {CH2CO}-[dY]FAYDRR[ACHC(1S,2S)]LSNN[ACHC(1S,2S)]RNY[dC] (thioether N-17, Made by solid-phase synthesis with the C-terminal TGTGT linker omitted; The formula f3 in the summary and claims ends in RNT; also called yFAYDRR1LSNN1RNYc) [F3] | – | – | – | Kd [3]: 0.98 nM; koff [3]: 0.0016 s⁻¹; Ki [4]: 1.02 nM |
| YRYTXNRLFXNAC (not fully specified; 1: D-Tyr, N-acetylated (from N-chloroacetyl-D-Tyr), thioether to D-Cys 13 (cyclic peptide); 5 and 10 (X, printed '1'): (1S,2S)-2-ACHC; 13: D-Cys) [F4] | – | – | – | koff [5]: 0.0085 s⁻¹ |
| {CH2CO}-[dY]PRLFNASYLRR[dC] (thioether N-13, also called negative control peptide of F2) [F2A] | – | – | – | koff [3]: 0.438 s⁻¹; Kd [6]: 92.2 nM |
| YPRLFNXSYLRRC (not fully specified; 1: D-Tyr, N-acetylated (from N-chloroacetyl-D-Tyr), thioether to D-Cys 13 (cyclic peptide); 7 (X, printed '2'): (1R,2R)-2-ACPC; 13: D-Cys) [F2] | – | – | – | koff [5]: 0.0178 s⁻¹ |
| YNDRSTRXRLVAC (not fully specified; 1: D-Tyr, N-acetylated (from N-chloroacetyl-D-Tyr), the acetyl joined by a thioether bond to the thiol of D-Cys 13 (cyclic peptide); 8 (X, printed '2'): (1R,2R)-2-ACPC; 13: D-Cys) [F1] | – | – | – | koff [5]: 0.0225 s⁻¹ |
| {CH2CO}-[dY]NDRSTRARLVA[dC] (thioether N-13, also called negative control peptide of F1; Ala mutant F1A) [F1A] | – | – | – | Kd [3]: 51.3 nM; koff [3]: 0.0297 s⁻¹ |
